Results on six compounds are retold here after patent US20030229002A1, “Use of agents that modulate PDE11A activity” (Pfizer Inc., priority 2002, published 2003).

Test [1] concerns epididymal spermatozoa. The test is described as follows: Capacitation analysis, chlorotetracycline (CTC) assay. As to conditions: for number of capacitated sperm: FIG. 6, P<0.001; for % capacitated sperm: mean ± SEM. The test is classed as cell-based, mouse. From the text:
Tissue sections were examined by immunohistochemistry (IHC) using a specific anti-PDE11 antibody. KO mice were generated using standard techniques, and PDE11 ablation confirmed by Southern blotting as well as reverse transcriptase polymerase chain reaction (RT-PCR) and IHC analysis of the testis. Fresh epididymal sperm were collected from adult mice and tested for capacitation (CP) using a chlorotetracycline assay before and after treatment with ATP—an inducer of CP.
For capacitation analyses, fresh epididymal spermatozoa were collected from adult (16 week-old) mice into Tyrodes media, and tested in triplicate using a chlorotetracycline (CTC) assay (Fraser, L. R. & Herod, J. E. Expression of capacitation-dependent changes in chlortetracycline fluorescence patterns in mouse spermatozoa requires a suitable glycolysable substrate. J. Reprod. Fert., 1990; 88(2): 611-21) both ± pre-treatment with ATP—an inducer of capacitation—to determine the functional state of the spermatozoa.
[…] The extent of capacitation was measured using chlorotetracycline (CTC), 750 μM for 15 min at 37° C. The patterns of CTC fluorescence were observed under microscopy (Reference: Fraser L R et al., 1990, J. Reprod. Fert.—see above). Patterns reflected the functional state of spermatozoa, i.e. capacitated, uncapacitated and acrosome loss.

The target of test [2] is T1, recombinant human PDE9 (Homo sapiens, UniProt O76083).
T1 construct: made in house; host or cells: Sf9 insect cells (baculovirus)
Briefly: PDE9 inhibition, SPA-based assay. The class given is biochemical. The following applies: Sf9 cells, geometric mean of at least 3 determinations.

For test [3], the target named is T2, recombinant human PDE8 (Homo sapiens, UniProt O60658).
T2 construct: made in house; host or cells: Sf9 insect cells (baculovirus)
The test is described as follows: PDE8 inhibition, SPA-based assay. The test is classed as biochemical. The following applies: Sf9 cells, geometric mean of at least 3 determinations.

In test [4] the target is T3, recombinant human PDE7 (Homo sapiens, UniProt Q13946).
T3 construct: made in house; host or cells: Sf9 insect cells (baculovirus)
Briefly: PDE7 inhibition, SPA-based assay. The test is classed as biochemical. The following applies: Sf9 cells, geometric mean of at least 3 determinations.

The target of test [5] is recombinant human PDE10 (Homo sapiens, UniProt Q9Y233). The test is described as follows: PDE10 inhibition, SPA-based assay. The test is classed as biochemical. As to conditions: Sf9 cells, geometric mean of at least 3 determinations.
Test [6] concerns the target T4, PDE6 (Bos taurus, UniProt P11541+P23439).
T4 construct: PDE6 was isolated from bovine retina; from tissue; host or cells: bovine retina
T4 sequence (P11541 2-856 limits assumed): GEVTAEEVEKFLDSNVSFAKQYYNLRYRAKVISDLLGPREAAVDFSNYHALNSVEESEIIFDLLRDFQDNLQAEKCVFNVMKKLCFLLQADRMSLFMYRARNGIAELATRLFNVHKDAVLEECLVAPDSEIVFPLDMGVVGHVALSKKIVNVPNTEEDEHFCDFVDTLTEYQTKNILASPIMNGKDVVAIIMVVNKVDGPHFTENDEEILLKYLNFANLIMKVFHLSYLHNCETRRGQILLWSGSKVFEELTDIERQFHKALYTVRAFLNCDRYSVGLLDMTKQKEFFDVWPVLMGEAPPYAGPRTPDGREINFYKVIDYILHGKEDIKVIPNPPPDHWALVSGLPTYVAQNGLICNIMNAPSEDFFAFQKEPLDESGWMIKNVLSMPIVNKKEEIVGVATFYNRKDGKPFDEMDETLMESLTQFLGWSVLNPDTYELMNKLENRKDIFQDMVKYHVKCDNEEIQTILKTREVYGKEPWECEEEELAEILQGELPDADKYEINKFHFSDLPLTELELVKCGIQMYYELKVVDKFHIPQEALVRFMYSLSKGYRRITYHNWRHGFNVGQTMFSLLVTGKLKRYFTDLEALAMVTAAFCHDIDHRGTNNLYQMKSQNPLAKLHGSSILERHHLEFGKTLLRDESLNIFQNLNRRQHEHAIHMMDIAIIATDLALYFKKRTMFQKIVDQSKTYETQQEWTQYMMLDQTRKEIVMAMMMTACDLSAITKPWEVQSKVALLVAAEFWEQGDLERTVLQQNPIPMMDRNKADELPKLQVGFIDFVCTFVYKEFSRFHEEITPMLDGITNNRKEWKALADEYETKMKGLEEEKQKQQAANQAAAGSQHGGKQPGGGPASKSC
T4 sequence (P23439 2-850 limits assumed): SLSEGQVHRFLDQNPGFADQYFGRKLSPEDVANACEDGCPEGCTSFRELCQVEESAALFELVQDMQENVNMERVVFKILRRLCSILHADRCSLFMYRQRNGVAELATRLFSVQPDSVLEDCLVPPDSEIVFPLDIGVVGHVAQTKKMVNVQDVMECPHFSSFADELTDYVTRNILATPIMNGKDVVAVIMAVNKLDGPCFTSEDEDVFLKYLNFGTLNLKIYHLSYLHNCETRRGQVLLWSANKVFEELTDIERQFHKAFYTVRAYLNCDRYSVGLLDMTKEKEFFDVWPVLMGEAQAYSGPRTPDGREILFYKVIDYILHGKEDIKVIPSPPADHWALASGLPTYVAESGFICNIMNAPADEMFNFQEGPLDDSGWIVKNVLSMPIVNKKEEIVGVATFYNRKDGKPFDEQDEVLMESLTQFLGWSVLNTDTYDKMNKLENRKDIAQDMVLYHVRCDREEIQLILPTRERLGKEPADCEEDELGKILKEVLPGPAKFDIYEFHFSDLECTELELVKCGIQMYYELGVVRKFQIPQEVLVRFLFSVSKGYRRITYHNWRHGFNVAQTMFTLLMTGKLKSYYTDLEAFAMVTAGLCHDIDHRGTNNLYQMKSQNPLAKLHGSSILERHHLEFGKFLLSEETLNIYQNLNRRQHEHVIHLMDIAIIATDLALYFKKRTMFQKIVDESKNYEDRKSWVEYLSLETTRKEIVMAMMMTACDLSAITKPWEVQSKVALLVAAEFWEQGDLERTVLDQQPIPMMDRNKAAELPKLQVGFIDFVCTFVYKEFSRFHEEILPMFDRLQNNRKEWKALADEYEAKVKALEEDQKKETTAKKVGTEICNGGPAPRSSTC
Briefly: PDE6 inhibition, SPA-based cGMP hydrolysis assay. The test is classed as biochemical. As to conditions: PDE6 isolated from bovine retina; geometric mean of at least 3 determinations.

Test [7] has as its target T5, recombinant human PDE11A (Homo sapiens, UniProt Q9HCR9).
T5 construct: made in house; host or cells: Sf9 insect cells (baculovirus)
Briefly: PDE11A inhibition, SPA-based cGMP hydrolysis assay. The test is classed as biochemical.

The target in test [8] is T5, recombinant human PDE11A. The following applies: substrate hydrolysis by recombinant human PDE11A; cited from earlier work.

Broadly, the IC50 is the point on the concentration scale where inhibition reaches its midpoint. One may read the Km as the concentration of substrate that gives half-maximal velocity.

Counter-ions that a name gives are not always drawn. Like-named read-outs stand apart in the source and are kept apart here.

T5 sequence (Q9HCR9 445-933): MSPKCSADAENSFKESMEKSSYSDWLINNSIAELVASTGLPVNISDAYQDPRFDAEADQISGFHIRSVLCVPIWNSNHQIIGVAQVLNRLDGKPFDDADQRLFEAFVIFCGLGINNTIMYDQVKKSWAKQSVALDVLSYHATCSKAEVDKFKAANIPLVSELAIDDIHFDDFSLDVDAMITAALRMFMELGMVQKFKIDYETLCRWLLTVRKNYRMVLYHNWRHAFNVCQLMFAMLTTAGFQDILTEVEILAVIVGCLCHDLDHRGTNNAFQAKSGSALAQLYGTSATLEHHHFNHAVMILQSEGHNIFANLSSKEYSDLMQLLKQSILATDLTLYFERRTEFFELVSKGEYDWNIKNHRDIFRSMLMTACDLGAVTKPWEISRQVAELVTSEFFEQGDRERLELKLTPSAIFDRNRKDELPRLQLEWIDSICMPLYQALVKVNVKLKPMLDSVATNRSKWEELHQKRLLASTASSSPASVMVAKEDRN
Sequence of recombinant human PDE10 (Q9Y233 290-1055 limits assumed): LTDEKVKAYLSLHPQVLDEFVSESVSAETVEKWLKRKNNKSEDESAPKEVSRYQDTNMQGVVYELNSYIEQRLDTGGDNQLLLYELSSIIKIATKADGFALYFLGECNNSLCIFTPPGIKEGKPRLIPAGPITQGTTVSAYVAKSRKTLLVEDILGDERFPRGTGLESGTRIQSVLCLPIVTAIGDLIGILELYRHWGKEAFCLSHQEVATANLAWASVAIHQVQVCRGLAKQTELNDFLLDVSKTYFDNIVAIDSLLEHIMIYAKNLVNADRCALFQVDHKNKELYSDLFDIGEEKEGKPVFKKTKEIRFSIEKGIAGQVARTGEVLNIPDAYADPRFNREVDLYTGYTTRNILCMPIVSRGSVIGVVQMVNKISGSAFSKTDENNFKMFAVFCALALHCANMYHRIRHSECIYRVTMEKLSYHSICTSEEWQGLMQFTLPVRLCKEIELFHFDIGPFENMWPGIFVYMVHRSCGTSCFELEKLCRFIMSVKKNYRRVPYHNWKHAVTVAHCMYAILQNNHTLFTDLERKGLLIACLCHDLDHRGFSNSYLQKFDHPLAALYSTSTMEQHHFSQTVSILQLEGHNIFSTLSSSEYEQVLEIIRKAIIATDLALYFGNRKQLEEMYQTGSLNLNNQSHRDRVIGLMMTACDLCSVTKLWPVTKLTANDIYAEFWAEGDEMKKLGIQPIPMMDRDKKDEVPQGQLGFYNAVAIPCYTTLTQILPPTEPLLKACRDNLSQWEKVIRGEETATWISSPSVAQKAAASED
T1 sequence (O76083 whole entry): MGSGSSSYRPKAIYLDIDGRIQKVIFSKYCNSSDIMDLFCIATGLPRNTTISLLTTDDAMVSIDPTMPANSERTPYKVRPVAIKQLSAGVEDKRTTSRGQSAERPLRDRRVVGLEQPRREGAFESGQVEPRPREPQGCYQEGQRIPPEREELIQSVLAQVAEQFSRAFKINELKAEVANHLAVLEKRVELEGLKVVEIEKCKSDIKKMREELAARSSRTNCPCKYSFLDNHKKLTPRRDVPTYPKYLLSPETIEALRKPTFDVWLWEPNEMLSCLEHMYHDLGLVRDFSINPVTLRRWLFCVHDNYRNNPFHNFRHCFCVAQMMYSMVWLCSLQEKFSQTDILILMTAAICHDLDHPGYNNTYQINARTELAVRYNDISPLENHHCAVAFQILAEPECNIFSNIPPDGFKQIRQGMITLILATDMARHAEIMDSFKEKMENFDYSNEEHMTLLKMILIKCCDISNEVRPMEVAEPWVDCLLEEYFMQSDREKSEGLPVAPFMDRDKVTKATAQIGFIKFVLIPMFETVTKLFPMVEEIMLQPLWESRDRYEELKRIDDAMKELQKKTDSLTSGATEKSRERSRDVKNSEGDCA
T3 sequence (Q13946 whole entry): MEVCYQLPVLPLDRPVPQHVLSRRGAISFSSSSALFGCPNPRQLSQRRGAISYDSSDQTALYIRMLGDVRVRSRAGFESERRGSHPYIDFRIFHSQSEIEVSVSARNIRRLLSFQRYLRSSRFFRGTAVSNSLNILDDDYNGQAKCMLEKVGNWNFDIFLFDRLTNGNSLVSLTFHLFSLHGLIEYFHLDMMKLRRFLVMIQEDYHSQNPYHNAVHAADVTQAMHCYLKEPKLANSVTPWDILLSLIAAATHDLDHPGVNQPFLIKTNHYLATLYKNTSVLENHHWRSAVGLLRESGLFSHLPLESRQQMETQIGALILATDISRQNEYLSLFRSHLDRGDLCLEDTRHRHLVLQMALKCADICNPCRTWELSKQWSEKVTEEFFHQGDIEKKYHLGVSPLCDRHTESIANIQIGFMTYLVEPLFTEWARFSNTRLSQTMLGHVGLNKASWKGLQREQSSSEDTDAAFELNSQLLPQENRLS
T2 sequence (O60658 whole entry): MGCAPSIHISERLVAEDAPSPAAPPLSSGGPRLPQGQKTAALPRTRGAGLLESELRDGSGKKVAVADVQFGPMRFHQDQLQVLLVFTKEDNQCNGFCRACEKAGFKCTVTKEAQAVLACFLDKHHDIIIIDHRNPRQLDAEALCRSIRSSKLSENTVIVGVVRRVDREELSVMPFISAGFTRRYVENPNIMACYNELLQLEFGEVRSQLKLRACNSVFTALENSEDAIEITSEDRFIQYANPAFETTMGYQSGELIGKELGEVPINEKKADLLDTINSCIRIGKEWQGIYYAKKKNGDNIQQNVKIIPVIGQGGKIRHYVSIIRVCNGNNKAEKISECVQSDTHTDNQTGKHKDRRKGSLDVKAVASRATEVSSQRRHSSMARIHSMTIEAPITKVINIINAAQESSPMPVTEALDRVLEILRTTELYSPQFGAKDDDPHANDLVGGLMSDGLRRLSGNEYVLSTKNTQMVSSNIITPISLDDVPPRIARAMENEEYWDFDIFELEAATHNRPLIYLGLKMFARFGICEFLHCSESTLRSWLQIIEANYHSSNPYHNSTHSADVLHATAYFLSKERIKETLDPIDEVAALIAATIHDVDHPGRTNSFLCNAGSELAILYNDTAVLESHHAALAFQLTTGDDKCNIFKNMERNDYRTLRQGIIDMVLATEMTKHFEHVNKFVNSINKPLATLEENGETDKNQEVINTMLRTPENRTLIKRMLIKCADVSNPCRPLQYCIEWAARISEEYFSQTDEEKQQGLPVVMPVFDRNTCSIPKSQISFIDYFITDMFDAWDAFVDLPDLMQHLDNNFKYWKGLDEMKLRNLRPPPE

For the compound `Nc1ncnc2c1ncn2[C@@H]1O[C@H](COP(=O)(O)OP(=O)(O)OP(=O)(O)O)[C@@H](O)[C@H]1O` [ATP, adenosine-5′-triphosphate], the “number of capacitated sperm” value in test [1] (ATP 1.0 mM, spermatozoa from PDE11 KO mice only) is reported as “significantly increased”; in test [1] (ATP 2.5 mM, all murine spermatozoa samples, 1 hr incubation) it was “significantly increased”. In addition, in test [1] (PDE11 knockout and wild type samples, after 1 hr incubation), the “number of capacitated murine spermatozoa” value is “significantly increased”. In addition, the “% capacitated sperm” value in test [1] (Table 2, PDE11 KO (−/−) mice, pre-treatment +1mM ATP, n = 3 animals) is on record as 45.9 ± 7.0%; in test [1] (Table 2, PDE11 KO (−/−) mice, pre-treatment +2.5 mM ATP, n = 3 animals), 73.9 ± 5.6%; in test [1] (Table 2, Wild-type (+/+) mice, pre-treatment +1mM ATP, n = 3 animals), 41.4 ± 8.2%; in test [1] (Table 2, Wild-type (+/+) mice, pre-treatment +2.5 mM ATP, n = 3 animals) it was 73.5 ± 5.1%; in test [1] (Table 3, PDE11 KO (−/−) mice, pre-treatment +1 mM ATP, n = 4) it was 48.4 ± 4.0%; in test [1] (Table 3, PDE11 KO (−/−) mice, pre-treatment +2.5 mM ATP, n = 4), 77.6 ± 3.8%. In addition, the “% capacitated sperm” value in test [1] (Table 3, Wild-type (+/+) mice, pre-treatment +1 mM ATP, n = 4) was 47.1 ± 5.1%; in test [1] (Table 3, Wild-type (+/+) mice, pre-treatment +2.5 mM ATP, n = 4) it was 78.4 ± 3.3%.

Take `O=C(O)C1CCN(c2nc(NCc3ccc4c(c3)OCO4)c3cc(Cl)ccc3n2)CC1` [Compound E4021, 1-[4-[(1,3-benzodioxol-5-ylmethyl)amino]-6-chloro-2-quinazolinyl]-4-piperidinecarboxylic acid, monohydrochloride]: the 50% inhibitory concentration (IC50) in test [2] is greater than 100 µM; in test [3], greater than 100 µM; in test [4], greater than 100 µM; in test [5], greater than 100 µM; in test [6], 0.0047 µM; in test [7], 0.572 µM.

Take `CN1CC(=O)N2[C@H](c3ccc4c(c3)OCO4)c3[nH]c4ccccc4c3C[C@@H]2C1=O` [IC351, (6R,12aR)-6-(1,3-benzodioxol-5-yl)-2,3,6,7,12,12a-hexahydro-2-methyl-pyrazino[1′,2′: 1,6]pyrido[3,4-b]indole-1,4-dione]: the half-maximal inhibitory concentration (IC50) in test [2] is greater than 100 µM; in test [3], greater than 100 µM; in test [4], greater than 100 µM; in test [5], greater than 100 µM; in test [6], 1.5 µM.

Turning to `CCCc1nn(C)c2c(=O)[nH]c(-c3cc(S(=O)(=O)N4CCN(C)CC4)ccc3OCC)nc12` [Sildenafil, 5-[2-ethoxy-5-(4-methyl-1-piperazinylsulphonyl)phenyl]-1-methyl-3-n-propyl-1,6-dihydro-7H-pyrazolo[4,3-d]pyrimidin-7-one], in test [4], the half-inhibitory concentration (IC50) stood at 19.7 µM.

On to `Clc1ccc2nc(-n3ccnc3)nc(NCc3ccccc3)c2c1` [UK-235,187, 6-Chloro-2-(1H-imidazol-1-yl)-N-(phenylmethyl)-,4-quinazolinamine, dihydrochloride], for which the IC50 was greater than 100 µM in test [2]; greater than 100 µM in test [5]; 1 µM in test [6]; 0.0466 µM in test [7] (recombinant human, Sf9 cells, 69 nM cGMP, geometric mean of at least 3 determinations, read-out: IC50 PDE11A).

Consider `Nc1nc2c(ncn2[C@@H]2O[C@@H]3COP(=O)(O)O[C@H]3[C@H]2O)c(=O)[nH]1` [cGMP, cyclic guanine 3′,5′-monophosphate], for which the Michaelis-Menten constant (Km) in test [8] was 0.52 µM.
